Starred links: 1 amine or outer side, 2 acyl side, 3 side chain; linkers in the order of their positions; H or OH if unused. Positions of bridges follow the written chain, without caps; N, C: chain ends. Non-standard residues stand in square brackets, D forms with d. Residues, ends and D or L forms follow the SMILES beside them. *: point of attachment. hTyr(3S-OH,4S-OH,3'-OSO3H) = N[C@H](C(=O)O)[C@H](O)[C@@H](O)c1ccc(O)c(OS(=O)(=O)O)c1; Orn(4R-OH,5R-OH) = O=C([C@H](C[C@@H](O)[C@@H](O)N[*:3])N[*:1])[*:2]; Pro(3S-OH,4S-Me) = C[C@H]1CN[C@H](C(=O)O)[C@H]1O; X1 = CCCCCOc1ccc(-c2cc(-c3ccc(C(=O)*)cc3)no2)cc1; Gln(3R-OH) = NC(=O)C[C@@H](O)[C@H](N)C(=O)O; Hyp = O=C(O)[C@@H]1C[C@@H](O)CN1
experiment: Ratio of dry weight to wet weight (Dry/Wet) of filtered solids; format: physicochemical; conditions: wet solids weighed after filtration, before drying
From the text: As used herein, the term “Dry/Wet” and “ratio of dry weight to wet weight” can be used interchangeably, both of which refer to the ratio of the weight of a compound without solvent(s) to the weight of the compound with solvent(s). In the present invention, wet weight of crystals is obtained by filtering the crystallized solids until no noticeable droplet outflows and weighing the solids.

Point of comparison: `CCCCCOc1ccc(-c2cc(-c3ccc(C(=O)N[C@H]4C[C@@H](O)[C@@H](O)NC(=O)[C@@H]5[C@@H](O)[C@@H](C)CN5C(=O)[C@H]([C@H](O)CC(N)=O)NC(=O)[C@H]([C@H](O)[C@@H](O)c5ccc(O)c(OS(=O)(=O)[O-])c5)NC(=O)[C@@H]5C[C@@H](O)CN5C(=O)[C@H]([C@@H](C)O)NC4=O)cc3)no2)cc1.[Na+]` [Comparative Example 5] (X1-[Orn(4R-OH,5R-OH)]T[Hyp][hTyr(3S-OH,4S-OH,3'-OSO3H)][Gln(3R-OH)][Pro(3S-OH,4S-Me)]; lactam 1-C), “ratio of dry weight to wet weight (Dry/Wet)” value 0.18. Against it:
- CCCCCOc1ccc(-c2cc(-c3ccc(C(=O)N[C@H]4C[C@@H](O)[C@@H](O)NC(=O)[C@@H]5[C@@H](O)[C@@H](C)CN5C(=O)[C@H]([C@H](O)CC(N)=O)NC(=O)[C@H]([C@H](O)[C@@H](O)c5ccc(O)c(OS(=O)(=O)[O-])c5)NC(=O)[C@@H]5C[C@@H](O)CN5C(=O)[C@H]([C@@H](C)O)NC4=O)cc3)no2)cc1.[Na+] [Comparative Example 4] (X1-[Orn(4R-OH,5R-OH)]T[Hyp][hTyr(3S-OH,4S-OH,3'-OSO3H)][Gln(3R-OH)][Pro(3S-OH,4S-Me)]; lactam 1-C) — higher, 0.19
- CCCCCOc1ccc(-c2cc(-c3ccc(C(=O)N[C@H]4C[C@@H](O)[C@@H](O)NC(=O)[C@@H]5[C@@H](O)[C@@H](C)CN5C(=O)[C@H]([C@H](O)CC(N)=O)NC(=O)[C@H]([C@H](O)[C@@H](O)c5ccc(O)c(OS(=O)(=O)[O-])c5)NC(=O)[C@@H]5C[C@@H](O)CN5C(=O)[C@H]([C@@H](C)O)NC4=O)cc3)no2)cc1.[Na+] [Comparative Example 15] (X1-[Orn(4R-OH,5R-OH)]T[Hyp][hTyr(3S-OH,4S-OH,3'-OSO3H)][Gln(3R-OH)][Pro(3S-OH,4S-Me)]; lactam 1-C) — lower, 0.15
- CCCCCOc1ccc(-c2cc(-c3ccc(C(=O)N[C@H]4C[C@@H](O)[C@@H](O)NC(=O)[C@@H]5[C@@H](O)[C@@H](C)CN5C(=O)[C@H]([C@H](O)CC(N)=O)NC(=O)[C@H]([C@H](O)[C@@H](O)c5ccc(O)c(OS(=O)(=O)[O-])c5)NC(=O)[C@@H]5C[C@@H](O)CN5C(=O)[C@H]([C@@H](C)O)NC4=O)cc3)no2)cc1.[Na+] [Comparative Example 8] (X1-[Orn(4R-OH,5R-OH)]T[Hyp][hTyr(3S-OH,4S-OH,3'-OSO3H)][Gln(3R-OH)][Pro(3S-OH,4S-Me)]; lactam 1-C) — lower, 0.15
- CCCCCOc1ccc(-c2cc(-c3ccc(C(=O)N[C@H]4C[C@@H](O)[C@@H](O)NC(=O)[C@@H]5[C@@H](O)[C@@H](C)CN5C(=O)[C@H]([C@H](O)CC(N)=O)NC(=O)[C@H]([C@H](O)[C@@H](O)c5ccc(O)c(OS(=O)(=O)[O-])c5)NC(=O)[C@@H]5C[C@@H](O)CN5C(=O)[C@H]([C@@H](C)O)NC4=O)cc3)no2)cc1.[Na+] [Comparative Example 9] (X1-[Orn(4R-OH,5R-OH)]T[Hyp][hTyr(3S-OH,4S-OH,3'-OSO3H)][Gln(3R-OH)][Pro(3S-OH,4S-Me)]; lactam 1-C) — lower, 0.09
- CCCCCOc1ccc(-c2cc(-c3ccc(C(=O)N[C@H]4C[C@@H](O)[C@@H](O)NC(=O)[C@@H]5[C@@H](O)[C@@H](C)CN5C(=O)[C@H]([C@H](O)CC(N)=O)NC(=O)[C@H]([C@H](O)[C@@H](O)c5ccc(O)c(OS(=O)(=O)[O-])c5)NC(=O)[C@@H]5C[C@@H](O)CN5C(=O)[C@H]([C@@H](C)O)NC4=O)cc3)no2)cc1.[Na+] [Comparative Example 10] (X1-[Orn(4R-OH,5R-OH)]T[Hyp][hTyr(3S-OH,4S-OH,3'-OSO3H)][Gln(3R-OH)][Pro(3S-OH,4S-Me)]; lactam 1-C) — higher, 0.23

Source: patent US10138275B2, “Crystalline powder of cyclic peptide compound, preparation method for same, and uses thereof” (SHANGHAI TECHWELL BIOPHARMACEUTICAL CO., LTD, priority 2014, dated 2018)
